Source: US8575375B2, “Androstane and pregnane steroids with potent allosteric GABA receptor chloride ionophore modulating properties” (Research Triangle Institute, priority 2007, dated 2013)

Columns and labels:
[1] = system: pentylenetetrazole (PTZ) induced seizures; experiment: PTZ seizure test; format: in vivo; conditions: FIG. 3; mice
Procedure: (§1) Male NIH Swiss mice (25-30 g) were housed two per cage. Animals were kept in a vivarium (temperature 22-26° C.; humidity 40-50%) with an artificial 12-h light/dark cycle and free access to food and water. Animals were allowed to acclimate to the vivarium for at least 5 days. The experiments were performed during the light phase of the light/dark cycle (between 9:30 AM and 3:30 PM), after at least a 30-min period of acclimation to the experimental room. Animals were maintained in facilities fully accredited by the Association for Assessment and Accreditation of Laboratory Animal Care, and experiments were performed under protocols approved by the Animal Care and Use Committee of the National Institute of Neurological Disorders and Stroke in strict compliance with the Guide for the Care and Use of Laboratory Animals of the National Research Council (National Academy Press, Washington, D.C.
(§2) Solutions of the steroids were made fresh daily in 40% hydroxypropyl-β-cyclodextrin in sterile 0.9% saline. Further dilutions were made using sterile saline. The steroids were injected intraperitoneally. The convulsant agent pentylenetetrazol (PTZ; Sigma-Aldrich) was dissolved in saline immediately before use. […]
The PTZ seizure test was carried out as described (Kokate et al., 1994). […] Mice failing to show clonic seizures lasting longer than 5 s were scored as protected. […]

[2] = biological target: GABAA receptor; experiment: [35S]TBPS binding assay in rat brain cerebral cortex homogenates; conditions: rat cortical membranes, 6.25 μM GABA, 2 nM [35S]TBPS; mean±SD
Procedure: (§3) Tissue preparation. Rat brain cerebral cortex homogenates and the binding assays were conducted essentially as described (Carter et al., 1997). Briefly, adult male Sprague-Dawley rats (Charles River Laboratories, Raleigh, N.C.) were killed by excess CO2 asphyxiation, decapitated, and their brain rapidly removed and frozen on dry ice before being stored −76° C. The frozen cortices were placed in 10 volumes of an ice-cold 0.32 M sucrose solution and homogenized with a Teflon-glass homogenizer. The homogenate was centrifuged at 1500×g (10 min at 4° C.). The supernatant was retained and centrifuged at 10,000×g (20 min at 4° C.), yielding the P2 pellet. The P2 pellet was resuspended in an equal volume of a 50 mM Na+/K+ phosphate buffer containing 200 mM NaCl (pH 7.4) and centrifuged at 10,000×g (10 min at 4° C.). The pellet was washed twice more, resuspended in 1/10 volume of buffer and stored at −76° C. until the time of assay.
[^35S]TBPS binding assays. These assays were carried out in 1.4 mL polypropylene tubes (Matrix Technologies, Hudson, N.H.). In a final volume of 0.5 mL, each tube contained 100 μL cortical membrane suspension (40 μg of protein, added last) 2 nM [^35S]TBPS (64-165 Ci/mmol), 6.25 μM GABA and one of six different concentrations of test compound added as 5 μL in 100% DMSO (1% final DMSO concentration). The test compounds were added to the assay tubes using a BiomekFX automated liquid handler with 96-well head (Beckman-Coulter, Fullerton, Calif.). Nonspecific binding was determined in the presence of 200 μM picrotoxin. The assays were incubated for 2 h at RT before being terminated by vacuum filtration through 96-well GF/B glass filter plates using a 96-well harvester (Brandel Scientific, Gaithersburg, Md.). Prior to harvesting, the filter plates were pre-soaked for 20 min in buffer containing 0.15% BSA and 0.1% PEI. The radioactivity remaining on the filter was determined in a TopCount 12-detector scintillation counter (Packard Instruments, Meriden, Conn.) using 20 μl of MicroScint20 (Packard Instruments) per well and standard liquid scintillation counting techniques.

[3] = system: elevated zero maze behaviour; experiment: Elevated zero maze test of anxiolytic activity; format: in vivo; conditions: therapeutic doses, mice
Procedure: as §1, with “D.C. […]” for “D.C.”
Anxiolytic activity was assessed with the elevated zero-maze as described (Kaminski et al., 2006). […] Five-min test sessions were video-recorded with a tripod-mounted camcorder. Percent time in open areas and number of entries into open areas were scored from the taped records using Observer 3.0 software (Noldus, Wageningen, The Netherlands). […] Dose-response data were analyzed by one-way analysis of variance. […]

[4] = system: GABAA receptor; experiment: [3H]Flunitrazepam binding assay (enhancement) in rat brain cerebral cortex homogenates; conditions: for [3H]Flunitrazepam Emax: percentage of Emax determined for allopregnanolone; for EC50: rat cortical membranes, 1.0 μM GABA, 1.0 nM [3H]flunitrazepam, mean±SD
Procedure: as §3
[^3H]Flunitrazepam binding assay. This assay was conducted as described for the [^35S]TBPS assay except that the assays contained 20 μg tissue homogenate, 1.0 μM GABA and 1.0 nM [^3H]flunitrazepam (74.1-85 Ci/mmol). Clonazepam (1.0 μM) was used to determine nonspecific binding.

[5] = system: electrically (6 Hz) induced seizures; experiment: 6-Hz seizure test; format: in vivo; conditions: FIG. 3; mice
Procedure: as §1
as §2, with “use. All drug solutions were administered in a volume equaling 0.01 mL/g of the animal's body weight.” for “use.”

Row | Compound | melting point | reduction of chemically (PTZ) induced seizures [1] | IC50 [2] [nM] | percentage of time spent in open arms of the maze ([3]; FIG. 1A) | number of entries (open arms) ([3]; FIG. 1B) | [3H]Flunitrazepam Emax [4] [%] | EC50 [4] [nM] | reduction of electrically (6 Hz) induced seizures [5]
1 | CN(C)c1ccc([C@H]2C[C@]3(C)[C@@H](O)CC[C@H]3[C@@H]3CC[C@H]4C[C@](C)(O)CC[C@@H]4[C@H]32)cc1.Cl | 230 to 232 °C (dec.) |  |  |  |  |  |  | 
2 | C[C@]12CC[C@@H](O)C[C@@H]1CC[C@@H]1[C@@H]2CC[C@]2(C)[C@@H]([N+](=O)[O-])CC[C@@H]12 [Compound A2-A, 17β-Nitro-5α-androstan-3α-ol] |  | reduce | 13 ± 0.13 | significantly enhanced | significantly enhanced | 103 | 24 ± 2.5 | reduce
3 | C[C@@]1(O)CC[C@@]2(C)[C@@H](CC[C@@H]3[C@@H]2CC[C@]2(C)[C@@H]([N+](=O)[O-])CC[C@@H]32)C1 [Compound A2-B, 3α-Hydroxy-3β-methyl-17β-nitro-5α-androstane] | 211 to 213 °C |  | 17.9 ± 6.19 |  |  | 99.1 | 33.5 ± 4.9 | 
4 | CS[C@H]1CCC2C3CC[C@H]4C[C@H](O)CC[C@]4(C)C3CC[C@@]21C (stereo partly drawn) [Compound B-5, 3α-Hydroxy-17β-thiomethyl-5α-androstane] | 151 to 153 °C |  | 32 ± 5.19 |  |  | 131.7 | 75.9 ± 12.4 | 
5 | CN(C)c1ccc([C@H]2C[C@@]3(C)C(CC[C@@H]3[N+](=O)[O-])C3CC[C@H]4C[C@](C)(O)CCC4C32)cc1 (stereo partly drawn) [Compound C-8, 11β-[4-(N,N-Dimethylamino)phenyl]-3α-hydroxy-3β-methyl-5α-17β-nitro-estrane] |  |  | 9.79 ± 1.93 |  |  | 135 | 39.5 ± 20.6 | 
